The values that follow are results of earlier work, collected in publication PMC5666773, “Human Immunodeficiency Virus Proteins Mimic Human T Cell Receptors Inducing Cross-Reactive Antibodies” (International Journal of Molecular Sciences, 2017).

This data set has as its target naturally circulating anti-insulin. The conditions noted are these: healthy human beings and cats; no clinical effect; read-out: naturally circulating anti-insulin binding.

With insulin, the Kd was ~10 µM.
